Experimental data as given in patent publication US20240360081A1, “SULFONAMIDE OREXIN RECEPTOR AGONISTS AND USES THEREOF” (Jazz Pharmaceuticals Ireland Limited, priority 2021, published 2024).

Biological target: T1, human recombinant OX2 (hOX2) receptor expressed in CHO cells (Homo sapiens, UniProt O43614)
T1 construct: host or cells: CHO cells (hOX2-CHO)
T1 sequence (O43614 1-444): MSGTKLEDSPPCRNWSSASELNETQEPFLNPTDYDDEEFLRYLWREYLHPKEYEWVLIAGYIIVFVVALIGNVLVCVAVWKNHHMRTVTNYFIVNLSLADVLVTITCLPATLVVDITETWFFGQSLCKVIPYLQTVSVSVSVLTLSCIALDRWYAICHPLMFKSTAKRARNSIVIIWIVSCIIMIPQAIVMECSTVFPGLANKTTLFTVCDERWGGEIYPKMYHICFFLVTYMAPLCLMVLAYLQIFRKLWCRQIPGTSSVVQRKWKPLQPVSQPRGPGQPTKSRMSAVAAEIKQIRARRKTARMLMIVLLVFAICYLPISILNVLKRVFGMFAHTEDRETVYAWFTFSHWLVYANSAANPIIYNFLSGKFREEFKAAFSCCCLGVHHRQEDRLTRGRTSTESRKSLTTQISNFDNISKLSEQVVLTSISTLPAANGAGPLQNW
Test: IP-1 accumulation assay (IP-One HTRF) in hOX2-CHO cells
Type: cell-based
Conditions: 60 min at 37° C., 11 points CRC, response as % of maximal OX-A response
Description: The accumulation of Inositol-1 Monophosphate (IP-1) was measured using IP-One HTRF® Terbium cryptate based assay (Cisbio) in human recombinant OX1 (hOX1) and at OX2 (hOX2) receptors expressed in CHO cells (DiscoverX) according to the manufacturer's instructions for cells tested in suspension.
hOX1-CHO and hOX2-CHO cells were seeded into white 384-well plates at a density of 20,000 cells/well in Hank's Balanced Salt Solution (HBSS) containing 20 mM HEPES pH 7.4, 50 mM, LiCl and 0.1% and Bovine Serum Albumin (BSA).
Compounds of the present disclosure were tested in a 11 points concentration response curve (CRC) serially diluted in neat DMSO at 200 fold concentrations and added by Echo acoustic liquid handling (Labcyte) to the cells (0.5% DMSO final in the assay). After 60 min of incubation at 37° C. detection reagents, IP1-d2 tracer and anti-IP1-cryptate were diluted in lysis buffer according to the manufacturer's descriptions and added to the cells.
Following 60 min incubation at room temperature, time-resolved fluorescence (HTRF) was measured at 615 nm and 665 nm by Envision Multilabel reader (Perkin Elmer) and the HTRF ratio (A665/A615x104) was calculated.
The IP-1 accumulation response was expressed as percentage of the maximal OX-A response.
Curve fitting and EC50 estimations were carried out using a four-parameter logistic model using XLfit Software. Mean data of EC50 are calculated from at least two independent experiments performed in duplicates.
In the Tables, below Category A corresponds to compounds displaying an […]<100 nM, Category B between 100 nM and 1,000 nM, Category C between 1,000 nM and 10,000 nM and Category D above 10,000 nM.

EC50	SMILES
> 10000 nM	Cc1ccn(C(CNS(C)(=O)=O)CO[C@H]2CC[C@@H](c3ccccc3)CC2)c(=O)c1C (single isomer, unassigned; isomer 2) [Example 2o, (S or R) N-[2-(3,4-dimethyl-2-oxo-1,2-dihydropyridin-1-yl)-3-{[(CIS)-4-phenylcyclohexyl]oxy}propyl]methanesulfonamide-Isomer 2]
1000 to 10000 nM	Cc1cc(C)c(=O)n(C(CNS(C)(=O)=O)CO[C@H]2CC[C@@H](c3ccccc3)CC2)c1 (single isomer, unassigned; isomer 2) [Example 2u, (S or R) N-[2-(3,5-dimethyl-2-oxo-1,2-dihydropyridin-1-yl)-3-{[(CIS)-4-phenylcyclohexyl]oxy}propyl]methanesulfonamide-Isomer 2]
1000 to 10000 nM	Cc1cccn(C(CO[C@H]2CC[C@@H](c3ccccc3)CC2)C(C)NS(C)(=O)=O)c1=O (single isomer, unassigned; isomer 2) [Example 3b, (2S or 2R) and (3S or 3R) N-[3-(3-methyl-2-oxo-1,2-dihydropyridin-1-yl)-4-{[(CIS)-4-phenylcyclohexyl]oxy}butan-2-yl]methanesulfonamide—Isomer 2]
> 10000 nM	Cn1cccc(C(CNS(C)(=O)=O)CO[C@H]2CC[C@@H](c3ccccc3)CC2)c1=O (single isomer, unassigned; isomer 2) [Example 4b, (S or R) N-[2-(1-methyl-2-oxo-1,2-dihydropyridin-3-yl)-3-{[(CIS)-4-phenylcyclohexyl]oxy}propyl]methanesulfonamide—Isomer 2]
100 to 1000 nM	Cc1cc(C(CNS(=O)(=O)N(C)C)CO[C@H]2CC[C@@H](c3cccc(F)c3)CC2)c(=O)n(C(F)F)c1 (single isomer, unassigned; isomer 2) [Example 5ac, (S or R) 1-(difluoromethyl)-3-[1-[(dimethylsulfamoyl)amino]-3-{[(CIS)-4-(3-fluorophenyl)cyclohexyl]oxy}propan-2-yl]-5-methyl-1,2-dihydropyridin-2-one—Isomer 2]
100 to 1000 nM	Cc1cc(C(CNS(C)(=O)=O)CO[C@H]2CC[C@@H](c3cccc(F)c3)CC2)c(=O)n(C)c1 (single isomer, unassigned; isomer 2) [Example 5d, (S or R) N-[2-(1,5-dimethyl-2-oxo-1,2-dihydropyridin-3-yl)-3-{[(CIS)-4-(3-fluorophenyl)cyclohexyl]oxy}propyl]methanesulfonamide—Isomer 2]
1000 to 10000 nM	Cc1cc(C)[n+]([O-])c(C(CNS(C)(=O)=O)CO[C@H]2CC[C@@H](c3ccccc3)CC2)c1 (single isomer, unassigned; isomer 2) [Example 5l, (S or R) 2-[1-methanesulfonamido-3-{[(CIS)-4-phenylcyclohexyl]oxy}propan-2-yl]-4,6-dimethylpyridin-1-ium-1-olate—Isomer 2]
100 to 1000 nM	Cc1cc(C(CNS(=O)(=O)CF)CO[C@H]2CC[C@@H](c3cccc(F)c3)CC2)c(=O)n(C)c1 (single isomer, unassigned; isomer 2) [Example 5o, (S or R) N-[2-(1,5-dimethyl-2-oxo-1,2-dihydropyridin-3-yl)-3-{[(CIS)-4-(3-fluorophenyl)cyclohexyl]oxy}propyl]-1-fluoromethanesulfonamide—Isomer 2]
1000 to 10000 nM	Cc1cc(C(CNS(C)(=O)=O)CO[C@H]2CC[C@@H](c3cccc(F)c3)CC2)c(=O)n(C(F)F)c1 (single isomer, unassigned; isomer 2) [Example 5z, (S or R) N-[2-[1-(difluoromethyl)-5-methyl-2-oxo-1,2-dihydropyridin-3-yl]-3-{[(CIS)-4-(3-fluorophenyl)cyclohexyl]oxy}propyl]methanesulfonamide—Isomer 2]
> 10000 nM	Cc1cccn(C(CO[C@H]2CC[C@@H](c3ccccc3)CC2)C(C)NS(C)(=O)=O)c1=O (single isomer, unassigned; isomer 3) [Example 3c, (2S or 2R) and (3R or 3S) N-[3-(3-methyl-2-oxo-1,2-dihydropyridin-1-yl)-4-{[(CIS)-4-phenylcyclohexyl]oxy}butan-2-yl]methanesulfonamide—Isomer 3]
1000 to 10000 nM	Cc1cccn(C(CO[C@H]2CC[C@@H](c3ccccc3)CC2)C(C)NS(C)(=O)=O)c1=O (single isomer, unassigned; isomer 4) [Example 3d, (2R or 2S) and (3S or 3R) N-[3-(3-methyl-2-oxo-1,2-dihydropyridin-1-yl)-4-{[(CIS)-4-phenylcyclohexyl]oxy}butan-2-yl]methanesulfonamide—Isomer 4]
1000 to 10000 nM	CS(=O)(=O)NCC(CO[C@H]1CC[C@@H](c2ccccc2)CC1)n1ccccc1=O (stereo partly drawn) [Example 1, N-[2-(2-oxo-1,2-dihydropyridin-1-yl)-3-{[(CIS)-4-phenylcyclohexyl]oxy}propyl]methanesulfonamide]
100 to 1000 nM	Cc1cccn(C(CNS(C)(=O)=O)CO[C@H]2CC[C@@H](c3ccccc3)CC2)c1=O (stereo partly drawn) [Example 1c, N-[2-(3-methyl-2-oxo-1,2-dihydropyridin-1-yl)-3-{[(CIS)-4-phenylcyclo-hexyl]oxy}propyl] methane-sulfonamide]
1000 to 10000 nM	CCc1cccn(C(CNS(C)(=O)=O)CO[C@H]2CC[C@@H](c3ccccc3)CC2)c1=O (stereo partly drawn) [Example 2, N-[2-(3-ethyl-2-oxo-1,2-dihydropyridin-1-yl)-3-{[(CIS)-4-phenylcyclohexyl]oxy}propyl]methanesulfonamide]
> 10000 nM	Cc1ccn(C(CNS(C)(=O)=O)CO[C@H]2CC[C@@H](c3ccccc3)CC2)n1 (stereo partly drawn) [Example 2aa, N-[2-(3-methyl-1H-pyrazol-1-yl)-3-{[(CIS)-4-phenylcyclohexyl]oxy}propyl]methanesulfonamide]
> 10000 nM	Cc1cncn(C(CNS(C)(=O)=O)CO[C@H]2CC[C@@H](c3ccccc3)CC2)c1=O (stereo partly drawn) [Example 2aj, N-[2-(5-methyl-6-oxo-1,6-dihydropyrimidin-1-yl)-3-{[(CIS)-4-phenylcyclohexyl]oxy}propyl]methanesulfonamide]
> 10000 nM	CS(=O)(=O)NCC(CO[C@H]1CC[C@@H](c2ccccc2)CC1)n1c(=O)ccc2ccccc21 (stereo partly drawn) [Example 2ak, N-[2-(2-oxo-1,2-dihydroquinolin-1-yl)-3-{[(CIS)-4-phenylcyclohexyl]oxy}propyl]methanesulfonamide]
< 100 nM	Cc1cc(C)c(=O)n(C(CNS(=O)(=O)C2CC2)CO[C@H]2CC[C@@H](c3cccc(F)c3)CC2)c1 (stereo partly drawn) [Example 2al, N-[2-(3,5-dimethyl-2-oxo-1,2-dihydropyridin-1-yl)-3-{[(CIS)-4-(3-fluorophenyl)cyclohexyl]oxy}propyl]cyclopropanesulfonamide]
100 to 1000 nM	Cc1cc(C)c(=O)n(C(CNS(=O)(=O)CC(F)F)CO[C@H]2CC[C@@H](c3cccc(F)c3)CC2)c1 (stereo partly drawn) [Example 2ao, N-[2-(3,5-dimethyl-2-oxo-1,2-dihydropyridin-1-yl)-3-{[(CIS)-4-(3-fluorophenyl)cyclohexyl]oxy}propyl]-2,2-difluoroethane-1-sulfonamide]
100 to 1000 nM	Cc1cc(C)c(=O)n(C(CNS(=O)(=O)CC(F)(F)F)CO[C@H]2CC[C@@H](c3cccc(F)c3)CC2)c1 (stereo partly drawn) [Example 2ap, N-[2-(3,5-dimethyl-2-oxo-1,2-dihydropyridin-1-yl)-3-{[(CIS)-4-(3-fluorophenyl)cyclohexyl]oxy}propyl]-2,2,2-trifluoroethane-1-sulfonamide]
< 100 nM	Cc1cc(C)c(=O)n(C(CNS(=O)(=O)N(C)C)CO[C@H]2CC[C@@H](c3cccc(F)c3)CC2)c1 (stereo partly drawn) [Example 2aq, 1-{1-[(dimethylsulfamoyl)amino]-3-{[(CIS)-4-(3-fluorophenyl)cyclohexyl]oxy}propan-2-yl}-3,5-dimethyl-1,2-dihydropyridin-2-one]
< 100 nM	Cc1cc(C)c(=O)n(C(CNS(=O)(=O)CF)CO[C@H]2CC[C@@H](c3cccc(F)c3)CC2)c1 (stereo partly drawn) [Example 2at, N-[2-(3,5-dimethyl-2-oxo-1,2-dihydropyridin-1-yl)-3-{[(CIS)-4-(3-fluorophenyl)cyclohexyl]oxy}propyl]-1-fluoromethanesulfonamide]
< 100 nM	COCCS(=O)(=O)NCC(CO[C@H]1CC[C@@H](c2cccc(F)c2)CC1)n1cc(C)cc(C)c1=O (stereo partly drawn) [Example 2ax, N-[2-(3,5-dimethyl-2-oxo-1,2-dihydropyridin-1-yl)-3-{[(CIS)-4-(3-fluorophenyl)cyclohexyl]oxy}propyl]-2-methoxyethane-1-sulfonamide]
